Assays:
Type in all cases: cell-based
[1] = system: normal human mammary cells (NHMC); assay: Growth inhibition of normal human mammary cells (NHMC) grown at low calcium concentration (40 μM); conditions: calcium 40 μM
Description: (§1) The results shown the extent of inhibition of cell growth compared to controls expressed in percent inhibition. The results are shown as follows:
Table 3 Percent Growth Inhibition in NHMC Cells Grown at Low Calcium Concentration (40 μM).

[2] = system: normal human mammary cells (NHMC); assay: Growth inhibition of normal human mammary cells (NHMC) grown in RPMI-10; conditions: for Percent Growth Inhibition in NHMC Cells Grown in RPMI-10: RPMI-1640 with 10% fetal calf serum
Excerpt: as §1
RPMI-10 refers to standard RPMI-1640 medium with 10% fetal calf serum added.

[3] = system: human breast cancer cells (MCF-7); assay: Growth inhibition of human breast cancer cells (MCF-7)
Excerpt: The results shown the extent of inhibition of cell growth compared to controls expressed in percent inhibition.

## N.N.[Cl][Pt][Cl] [cisplatin, cis-diamminedichloroplatinum]
[1]; 1/100
  Percent Growth Inhibition in NHMC Cells Grown at Low Calcium Concentration (40 μM): 32%
[1]; 1/200
  Percent Growth Inhibition in NHMC Cells Grown at Low Calcium Concentration (40 μM): 31%
[1]; 1/400
  Percent Growth Inhibition in NHMC Cells Grown at Low Calcium Concentration (40 μM): 27%
[2]; 1/100
  Percent Growth Inhibition in NHMC Cells Grown in RPMI-10: 88%
[2]; 1/200
  Percent Growth Inhibition in NHMC Cells Grown in RPMI-10: 46%
[2]; 1/400
  Percent Growth Inhibition in NHMC Cells Grown in RPMI-10: 0%
[2]; in words, RPMI-10
  inhibitions on NHMC, comparison of cisplatin and #801C: not significantly different
[3]; 5 μL
  Percent Growth Inhibition in MCF-7 Cells: 25%
[3]; 10 μL
  Percent Growth Inhibition in MCF-7 Cells: 49%
[3]; 25 μL
  Percent Growth Inhibition in MCF-7 Cells: 92%
[3]; in words
  inhibitions on MCF-7, comparison of cisplatin and #801C: essentially the same

Reference: patent US6297245A, “Cisplatin and folic acid administered to treat breast cancer” (Unitech Pharmaceuticals, priority 1999, dated 2001)
